Measurements taken from US20240391936A1, “TETRAHYDROTHIENO PYRIDINE DERIVATIVES AS DDRS INHIBITORS” (CHIESI FARMACEUTICI S.P.A., priority 2021, published 2024).

Assays:
DDR1 [1] = target: T1, DDR1 (Homo sapiens, UniProt Q08345); experiment: DDR1 cell based assay (PathHunter U2OS DDR1 assay); design: host or cells: U2OS-DDR1 (PathHunter); conditions: U2OS-DDR1 cells, bovine Type II Collagen 20 μg/ml
Procedure, shortened: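 U2OS-DDR1 PathHunter cells preincubated 30 min with compound, then stimulated overnight at 37 °C with 20 μg/ml bovine type II collagen. Luminescent complementation signal read after 1 h detection at room temperature; normalized to vehicle (0%) and collagen-only (100%) controls, IC50 from variable-slope sigmoidal fit.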

DDR1 [2] = target: T1, DDR1; experiment: DDR1 binding assay (LanthaScreen Europium Kinase Binding assay); design: purchased Carna Biosciences; conditions: binding assay, 5 nM DDR1, 20 nM Kinase Tracer 178; Ki from IC50 by Cheng-Prusoff; read-out: Ki DDR1
Procedure, shortened: (§1)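 Compounds incubated 1 h at room temperature with 5 nM kinase, Kinase Tracer 178 (20 nM for DDR1, 10 nM for DDR2) and 2 nM Eu-anti-GST antibody in pH 7.5 HEPES/MgCl2/EGTA/BRIJ35 buffer. TR-FRET 665/615 nm ratio read after 340 nm excitation; IC50 from 4-parameter fit, converted to Ki by Cheng-Prusoff.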

DDR2 = target: T2, DDR2 (Homo sapiens, UniProt Q16832); experiment: DDR2 binding assay (LanthaScreen Europium Kinase Binding assay); design: purchased Life Technologies; conditions: binding assay, 5 nM DDR2, 10 nM Kinase Tracer 178; Ki from IC50 by Cheng-Prusoff; read-out: Ki DDR2
T2 sequence (Q16832 22-855): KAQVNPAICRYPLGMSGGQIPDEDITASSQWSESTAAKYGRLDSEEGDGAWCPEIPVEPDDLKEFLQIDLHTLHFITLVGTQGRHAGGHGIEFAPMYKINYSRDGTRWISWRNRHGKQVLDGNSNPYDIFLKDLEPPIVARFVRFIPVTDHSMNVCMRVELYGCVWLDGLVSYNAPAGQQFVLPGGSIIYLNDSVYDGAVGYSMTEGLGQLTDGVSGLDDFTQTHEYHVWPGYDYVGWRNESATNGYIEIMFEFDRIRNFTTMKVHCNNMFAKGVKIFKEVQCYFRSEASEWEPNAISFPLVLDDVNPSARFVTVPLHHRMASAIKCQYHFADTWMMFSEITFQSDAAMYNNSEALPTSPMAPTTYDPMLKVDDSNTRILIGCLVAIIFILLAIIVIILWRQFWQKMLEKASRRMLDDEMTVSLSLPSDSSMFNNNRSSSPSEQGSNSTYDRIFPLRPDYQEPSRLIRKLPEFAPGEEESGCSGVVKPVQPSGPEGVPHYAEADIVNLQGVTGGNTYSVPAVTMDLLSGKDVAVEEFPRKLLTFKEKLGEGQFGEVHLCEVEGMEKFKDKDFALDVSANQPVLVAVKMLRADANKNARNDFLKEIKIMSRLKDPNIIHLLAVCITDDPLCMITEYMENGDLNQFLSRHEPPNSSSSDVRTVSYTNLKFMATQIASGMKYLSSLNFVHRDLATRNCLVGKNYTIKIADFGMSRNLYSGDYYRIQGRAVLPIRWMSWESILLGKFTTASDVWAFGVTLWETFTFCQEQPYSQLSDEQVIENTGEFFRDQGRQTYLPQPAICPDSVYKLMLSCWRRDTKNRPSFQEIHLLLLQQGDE
Procedure, shortened: as §1

T1 sequence (Q08345 19-913): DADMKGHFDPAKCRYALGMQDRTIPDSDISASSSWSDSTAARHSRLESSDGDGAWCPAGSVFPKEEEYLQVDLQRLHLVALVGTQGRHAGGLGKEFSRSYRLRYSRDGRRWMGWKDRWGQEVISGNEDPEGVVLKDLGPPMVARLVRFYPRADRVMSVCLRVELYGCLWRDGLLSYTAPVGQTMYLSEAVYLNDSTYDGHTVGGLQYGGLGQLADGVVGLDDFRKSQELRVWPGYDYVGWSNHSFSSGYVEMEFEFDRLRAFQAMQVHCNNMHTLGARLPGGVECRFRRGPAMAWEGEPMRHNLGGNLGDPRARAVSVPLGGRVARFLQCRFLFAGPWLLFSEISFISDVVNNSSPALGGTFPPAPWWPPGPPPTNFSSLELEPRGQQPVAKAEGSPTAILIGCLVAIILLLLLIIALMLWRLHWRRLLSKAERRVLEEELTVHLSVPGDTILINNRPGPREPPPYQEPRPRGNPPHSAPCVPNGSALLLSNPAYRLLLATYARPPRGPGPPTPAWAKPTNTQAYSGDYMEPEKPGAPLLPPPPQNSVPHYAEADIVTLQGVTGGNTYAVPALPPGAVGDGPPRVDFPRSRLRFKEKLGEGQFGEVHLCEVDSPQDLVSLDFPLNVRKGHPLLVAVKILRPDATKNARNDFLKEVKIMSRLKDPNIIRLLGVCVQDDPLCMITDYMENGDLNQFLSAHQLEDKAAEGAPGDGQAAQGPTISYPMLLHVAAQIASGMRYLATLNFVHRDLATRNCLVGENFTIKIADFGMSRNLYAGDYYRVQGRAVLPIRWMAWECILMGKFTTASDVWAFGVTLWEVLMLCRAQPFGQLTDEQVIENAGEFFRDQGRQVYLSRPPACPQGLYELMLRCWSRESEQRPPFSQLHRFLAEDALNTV

Structure (SMILES)	IC50 (DDR1 [1]) [µM]	Ki (DDR1 [2]) [µM]	Ki (DDR2) [µM]
O=C(Nc1cncc(C(F)(F)F)c1)c1csc2c1CCN(C(=O)c1cnn3ccccc13)C2 [Example 124, 6-(pyrazolo[1,5-a]pyridine-3-carbonyl)-N-(5-(trifluoromethyl)pyridin-3-yl)-4,5,6,7-tetrahydrothieno[2,3-c]pyridine-3-carboxamide]	< 0.025	< 0.025	< 0.025
O=C(Nc1cncc(OC(F)F)c1)c1csc2c1CCN(C(=O)c1cnn3ccncc13)C2 [Example 125, N-(5-(difluoromethoxy)pyridin-3-yl)-6-(pyrazolo[1,5-a]pyrazine-3-carbonyl)-4,5,6,7-tetrahydrothieno[2,3-c]pyridine-3-carboxamide]	0.025 to 0.05	< 0.025	< 0.025
CC(C)(c1cc(NC(=O)c2csc3c2CCN(C(=O)c2cnn4ccncc24)C3)no1)C(F)(F)F [Example 126, 6-(pyrazolo[1,5-a]pyrazine-3-carbonyl)-N-(5-(1,1,1-trifluoro-2-methylpropan-2-yl)isoxazol-3-yl)-4,5,6,7-tetrahydrothieno[2,3-c]pyridine-3-carboxamide]	0.025 to 0.05	< 0.025	< 0.025
O=C(Nc1cncc(C(F)(F)F)c1)c1csc2c1CCN(C(=O)c1cnc3cnccn13)C2 [Example 127, 6-(imidazo[1,2-a]pyrazine-3-carbonyl)-N-(5-(trifluoromethyl)pyridin-3-yl)-4,5,6,7-tetrahydrothieno[2,3-c]pyridine-3-carboxamide]	0.025 to 0.05	< 0.025	< 0.025
O=C(Nc1cncc(OC(F)(F)F)c1)c1csc2c1CCN(C(=O)c1cnn3ccncc13)C2 [Example 128, 6-(pyrazolo[1,5-a]pyrazine-3-carbonyl)-N-(5-(trifluoromethoxy)pyridin-3-yl)-4,5,6,7-tetrahydrothieno[2,3-c]pyridine-3-carboxamide]	< 0.025	< 0.025	< 0.025
CN(C)Cc1cc(NC(=O)c2csc3c2CCN(C(=O)c2cnc4ccccn24)C3)cc(C(F)(F)F)n1 [Example 129, N-(2-((dimethylamino)methyl)-6-(trifluoromethyl)pyridin-4-yl)-6-(imidazo[1,2-a]pyridine-3-carbonyl)-4,5,6,7-tetrahydrothieno[2,3-c]pyridine-3-carboxamide]	0.025 to 0.05	< 0.025	0.025 to 0.05
CN(C)[C@@H]1CCN(C(=O)c2cc(NC(=O)c3csc4c3CCN(C(=O)c3cnc5ccccn35)C4)cc(C(F)(F)F)c2)C1 [Example 130, (R)-N-(3-(3-(dimethylamino)pyrrolidine-1-carbonyl)-5-(trifluoromethyl)phenyl)-6-(imidazo[1,2-a]pyridine-3-carbonyl)-4,5,6,7-tetrahydrothieno[2,3-c]pyridine-3-carboxamide]	0.05 to 0.08	< 0.025	< 0.025
N#Cc1cc(NC(=O)c2csc3c2CCN(C(=O)c2cnc4ccccn24)C3)cc(C(F)(F)F)c1 [Example 131, N-(3-cyano-5-(trifluoromethyl)phenyl)-6-(imidazo[1,2-a]pyridine-3-carbonyl)-4,5,6,7-tetrahydrothieno[2,3-c]pyridine-3-carboxamide]	0.025 to 0.05	< 0.025	< 0.025
O=C(Nc1ccc(CO)c(C(F)(F)F)c1)c1csc2c1CCN(C(=O)c1cnc3ccccn13)C2 [Example 132, N-(4-(hydroxymethyl)-3-(trifluoromethyl)phenyl)-6-(imidazo[1,2-a]pyridine-3-carbonyl)-4,5,6,7-tetrahydrothieno[2,3-c]pyridine-3-carboxamide]	< 0.025	< 0.025	< 0.025
CN(C)Cc1ccc2ncc(C(=O)N3CCc4c(C(=O)Nc5cccc(C(F)(F)F)c5)csc4C3)n2c1 [Example 135, 6-(6-((dimethylamino)methyl)imidazo[1,2-a]pyridine-3-carbonyl)-N-(3-(trifluoromethyl)phenyl)-4,5,6,7-tetrahydrothieno[2,3-c]pyridine-3-carboxamide]	0.025 to 0.05	< 0.025	0.025 to 0.05
O=C(Nc1cccc(C(F)(F)F)c1)c1csc2c1CCN(C(=O)c1cnc3ccc(OCCO)cn13)C2 [Example 137, 6-(6-(2-hydroxyethoxy)imidazo[1,2-a]pyridine-3-carbonyl)-N-(3-(trifluoromethyl)phenyl)-4,5,6,7-tetrahydrothieno[2,3-c]pyridine-3-carboxamide]	< 0.025	< 0.025	< 0.025
COCCOc1ccn2c(C(=O)N3CCc4c(C(=O)Nc5cccc(C(F)(F)F)c5)csc4C3)cnc2c1 [Example 138, 6-(7-(2-methoxyethoxy)imidazo[1,2-a]pyridine-3-carbonyl)-N-(3-(trifluoromethyl)phenyl)-4,5,6,7-tetrahydrothieno[2,3-c]pyridine-3-carboxamide]	< 0.025	< 0.025	< 0.025
O=C(Nc1cccc(C(F)(F)F)c1)c1csc2c1CCN(C(=O)c1cnc3cc(OCCN4CCOCC4)ccn13)C2 [Example 139, 6-(7-(2-morpholinoethoxy)imidazo[1,2-a]pyridine-3-carbonyl)-N-(3-(trifluoromethyl)phenyl)-4,5,6,7-tetrahydrothieno[2,3-c]pyridine-3-carboxamide]	0.025 to 0.05	< 0.025	< 0.025
COc1ccn2ncc(C(=O)N3CCc4c(C(=O)Nc5cncc(C(F)(F)F)c5)csc4C3)c2c1 [Example 140, 6-(5-methoxypyrazolo[1,5-a]pyridine-3-carbonyl)-N-(5-(trifluoromethyl)pyridin-3-yl)-4,5,6,7-tetrahydrothieno[2,3-c]pyridine-3-carboxamide]	< 0.025	< 0.025	< 0.025
O=C(Nc1cncc(C(F)(F)F)c1)c1csc2c1CCN(C(=O)c1cnn3ccsc13)C2 [Example 141, 6-(pyrazolo[5,1-b]thiazole-7-carbonyl)-N-(5-(trifluoromethyl)pyridin-3-yl)-4,5,6,7-tetrahydrothieno[2,3-c]pyridine-3-carboxamide]	< 0.025	< 0.025	< 0.025
COc1ccn2c(C(=O)N3CCc4c(C(=O)Nc5cncc(C(F)(F)F)c5)csc4C3)cnc2c1 [Example 142, 6-(7-methoxyimidazo[1,2-a]pyridine-3-carbonyl)-N-(5-(trifluoromethyl)pyridin-3-yl)-4,5,6,7-tetrahydrothieno[2,3-c]pyridine-3-carboxamide]	0.05 to 0.08	< 0.025	< 0.025
Cn1ccn2ncc(C(=O)N3CCc4c(C(=O)Nc5cncc(C(F)(F)F)c5)csc4C3)c12 [Example 143, 6-(1-methyl-1H-imidazo[1,2-b]pyrazole-7-carbonyl)-N-(5-(trifluoromethyl)pyridin-3-yl)-4,5,6,7-tetrahydrothieno[2,3-c]pyridine-3-carboxamide]	< 0.025	< 0.025	< 0.025
O=C(Nc1cncc(C(F)(F)F)c1)c1csc2c1CCN(C(=O)c1cnc3cc(F)ccn13)C2 [Example 144, 6-(7-fluoroimidazo[1,2-a]pyridine-3-carbonyl)-N-(5-(trifluoromethyl)pyridin-3-yl)-4,5,6,7-tetrahydrothieno[2,3-c]pyridine-3-carboxamide]	< 0.025	< 0.025	< 0.025
CN1CCN(c2ccc3ncc(C(=O)N4CCc5c(C(=O)Nc6cc(C(C)(C)C)n(C)n6)csc5C4)n3c2)CC1 [Example 145, N-(5-(tert-butyl)-1-methyl-1H-pyrazol-3-yl)-6-(6-(4-methylpiperazin-1-yl)imidazo[1,2-a]pyridine-3-carbonyl)-4,5,6,7-tetrahydrothieno[2,3-c]pyridine-3-carboxamide]	0.025 to 0.05	< 0.025	0.025 to 0.05
Cc1n[nH]c2ncc(CN3CCc4c(C(=O)Nc5cc(C6CC6)nn5C)csc4C3)cc12 [Example 146, N-(3-cyclopropyl-1-methyl-1H-pyrazol-5-yl)-6-((3-methyl-1H-pyrazolo[3,4-b]pyridin-5-yl)methyl)-4,5,6,7-tetrahydrothieno[2,3-c]pyridine-3-carboxamide]	0.025 to 0.05	< 0.025	< 0.025
